According to patent US9371336B2, “Compounds for treating spinal muscular atrophy” (PTC Therapeutics Inc., priority 2012, dated 2016):

Tests used:
[1] = test system: SMN2 minigene mRNA (SMN2-A minigene construct); experiment: SMN2 minigene mRNA splicing RT-qPCR assay in cultured cells; format: cell-based, human; settings: Homo sapiens, HEK293-H; HEK293H cells stably transfected with SMN2-A minigene, 24 hours, 7-point concentration data; concentration giving 1.5-fold SMN2 full length mRNA relative to vehicle-treated cells; read-out: EC1.5x for production of full length SMN2 mRNA
Outline: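 Full-length SMN2 minigene mRNA, measured by exon 7/luciferase-specific RT-qPCR that excludes endogenous SMN1/SMN2, was normalized to GAPDH and expressed relative to vehicle-treated cells via modified ΔΔCt. Stably transfected HEK293H cells received compound (7-point, 3.16-fold series, duplicates) for 24 h at 37 °C.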

[2] = test system: Smn protein; experiment: Smn protein assay (HTRF) in cultured cells (SMA patient fibroblasts GM03813); format: cell-based, human; settings: 48 hours; for maximum fold (Fold) increase of Smn protein: SMA patient fibroblast cells, 7-point concentration curve, relative to vehicle control; for EC1.5x for Smn protein expression: SMA patient fibroblast cells (GM03813), HTRF, 7-point concentration data, concentration producing 1.5 times Smn protein vs DMSO vehicle control
Outline: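 Smn level is expressed as fold over vehicle, from blank-corrected ΔF of the 665/620 nm HTRF ratio. Readout used anti-SMN d2 and kryptate antibodies on RIPA lysates. GM03813 SMA fibroblasts had 48 h exposure at 37° C to seven 3.16-fold compound dilutions, run in triplicate.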

Structure (SMILES) | melting point | EC (1.5-fold) [1] | maximum fold (Fold) increase of Smn protein [2] | EC1.5x for Smn protein expression [2]
CCN1CCCN(c2ccc3cc(-c4cn5cccnc5n4)c(=O)oc3n2)CC1 [Cpd 126, 7-(4-ethyl-1,4-diazepan-1-yl)-3-(imidazo[1,2-a]pyrimidin-2-yl)-2H-pyrano[2,3-b]pyridin-2-one] | 271 to 273 °C | 0.1 to 0.3 µM | *** (a fold increase between >1.35 and ≦1.5 is indicated by three stars (***)) | –
CCN1CCCN(c2ccc3cc(-c4cn5ccccc5n4)c(=O)oc3n2)CC1 [Cpd 127, 7-(4-ethyl-1,4-diazepan-1-yl)-3-(imidazo[1,2-a]pyridin-2-yl)-2H-pyrano[2,3-b]pyridin-2-one] | 285 to 288 °C | ≤ 0.1 µM | **** (a fold increase between >1.5 and ≦1.65 is indicated by four stars (****)) | *** (an EC1.5× between >0.3 μM and ≦1 μM is indicated by three stars (***))
CCN1[C@H](C)CN(c2ccc3cc(-c4cn5ccccc5n4)c(=O)oc3n2)C[C@@H]1C [Cpd 129, 7-[(3R,5S)-4-ethyl-3,5-dimethylpiperazin-1-yl]-3-(imidazo[1,2-a]pyridin-2-yl)-2H-pyrano[2,3-b]pyridin-2-one] | 281 to 284 °C | ≤ 0.1 µM | ***** (a fold increase >1.65 is indicated by five stars (*****)) | **** (an EC1.5×≦0.3 μM is indicated by four stars (****))
CCN1CCN(c2ccc3cc(-c4cn5cc(C)ccc5n4)c(=O)oc3n2)CC1 [Cpd 130, 7-(4-ethylpiperazin-1-yl)-3-(6-methylimidazo[1,2-a]pyridin-2-yl)-2H-pyrano[2,3-b]pyridin-2-one] | 235 to 237 °C | 0.1 to 0.3 µM | *** (a fold increase between >1.35 and ≦1.5 is indicated by three stars (***)) | * (An EC1.5× for Smn protein expression between >3 μM and ≦10 μM is indicated by one star (*))
CCN1CCN(c2ccc3cc(-c4cn5ccc(C)cc5n4)c(=O)oc3n2)CC1 [Cpd 131, 7-(4-ethylpiperazin-1-yl)-3-(7-methylimidazo[1,2-a]pyridin-2-yl)-2H-pyrano[2,3-b]pyridin-2-one] | 258 to 261 °C | 0.1 to 0.3 µM | *** (a fold increase between >1.35 and ≦1.5 is indicated by three stars (***)) | –
CCN1CCN(c2ccc3cc(-c4cn5cccc(F)c5n4)c(=O)oc3n2)CC1 [Cpd 132, 7-(4-ethylpiperazin-1-yl)-3-(8-fluoroimidazo[1,2-a]pyridin-2-yl)-2H-pyrano[2,3-b]pyridin-2-one] | 203 to 206 °C | 0.1 to 0.3 µM | ** (a fold increase between >1.2 and ≦1.35 is indicated by two stars (**)) | –
CCN1CCCN(c2ccc3cc(-c4cn5cccc(F)c5n4)c(=O)oc3n2)CC1 [Cpd 139, 7-(4-ethyl-1,4-diazepan-1-yl)-3-(8-fluoroimidazo[1,2-a]pyridin-2-yl)-2H-pyrano[2,3-b]pyridin-2-one] | 189 to 191 °C | ≤ 0.1 µM | **** (a fold increase between >1.5 and ≦1.65 is indicated by four stars (****)) | **** (an EC1.5×≦0.3 μM is indicated by four stars (****))
CCN1CCCN(c2ccc3cc(-c4cn5cccc(Cl)c5n4)c(=O)oc3n2)CC1 [Cpd 141, 3-(8-chloroimidazo[1,2-a]pyridin-2-yl)-7-(4-ethyl-1,4-diazepan-1-yl)-2H-pyrano[2,3-b]pyridin-2-one] | 201 to 204 °C | ≤ 0.1 µM | **** (a fold increase between >1.5 and ≦1.65 is indicated by four stars (****)) | **** (an EC1.5×≦0.3 μM is indicated by four stars (****))

Continued, in another order:

melting point | Structure (SMILES) | EC (1.5-fold) [1] | maximum fold (Fold) increase of Smn protein [2] | EC1.5x for Smn protein expression [2]
289 to 291 °C | CCN1CCCN(c2ccc3cc(-c4cn5cc(C)nc(C)c5n4)c(=O)oc3n2)CC1 [Cpd 128, 3-(6,8-dimethylimidazo[1,2-a]pyrazin-2-yl)-7-(4-ethyl-1,4-diazepan-1-yl)-2H-pyrano[2,3-b]pyridin-2-one] | ≤ 0.1 µM | ***** (a fold increase >1.65 is indicated by five stars (*****)) | **** (an EC1.5×≦0.3 μM is indicated by four stars (****))
218 to 221 °C | CCN1CCN(c2ccc3cc(-c4cn5cccc(Cl)c5n4)c(=O)oc3n2)CC1 [Cpd 133, 3-(8-chloroimidazo[1,2-a]pyridin-2-yl)-7-(4-ethylpiperazin-1-yl)-2H-pyrano[2,3-b]pyridin-2-one] | ≤ 0.1 µM | *** (a fold increase between >1.35 and ≦1.5 is indicated by three stars (***)) | *** (an EC1.5× between >0.3 μM and ≦1 μM is indicated by three stars (***))
238 to 242 °C | CCN1CCN(c2ccc3cc(-c4cn5cc(C)cc(F)c5n4)c(=O)oc3n2)CC1 [Cpd 134, 7-(4-ethylpiperazin-1-yl)-3-(8-fluoro-6-methylimidazo[1,2-a]pyridin-2-yl)-2H-pyrano[2,3-b]pyridin-2-one] | 0.1 to 0.3 µM | *** (a fold increase between >1.35 and ≦1.5 is indicated by three stars (***)) | * (An EC1.5× for Smn protein expression between >3 μM and ≦10 μM is indicated by one star (*))
239 to 243 °C | CCN1CCN(c2ccc3cc(-c4cn5cc(C)cc(F)c5n4)c(=O)oc3n2)C[C@@H]1C [Cpd 137, 7-[(3S)-4-ethyl-3-methylpiperazin-1-yl]-3-(8-fluoro-6-methylimidazo[1,2-a]pyridin-2-yl)-2H-pyrano[2,3-b]pyridin-2-one] | ≤ 0.1 µM | **** (a fold increase between >1.5 and ≦1.65 is indicated by four stars (****)) | *** (an EC1.5× between >0.3 μM and ≦1 μM is indicated by three stars (***))
195 to 200 °C | CCN1CCCN(c2ccc3cc(-c4cn5cc(C)cc(F)c5n4)c(=O)oc3n2)CC1 [Cpd 138, 7-(4-ethyl-1,4-diazepan-1-yl)-3-(8-fluoro-6-methylimidazo[1,2-a]pyridin-2-yl)-2H-pyrano[2,3-b]pyridin-2-one] | ≤ 0.1 µM | **** (a fold increase between >1.5 and ≦1.65 is indicated by four stars (****)) | **** (an EC1.5×≦0.3 μM is indicated by four stars (****))
238 to 241 °C | CCN1CCN(c2ccc3cc(-c4cn5cc(C)nc(C)c5n4)c(=O)oc3n2)CC1 [Cpd 140, 3-(6,8-dimethylimidazo[1,2-a]pyrazin-2-yl)-7-(4-ethylpiperazin-1-yl)-2H-pyrano[2,3-b]pyridin-2-one] | 0.3 to 1 µM | **** (a fold increase between >1.5 and ≦1.65 is indicated by four stars (****)) | ** (an EC1.5× between >1 and ≦3 μM is indicated by two stars (**))
217 to 221 °C | CCN1CCCN(c2ccc3cc(-c4cn5cc(C)ncc5n4)c(=O)oc3n2)CC1 [Cpd 142, 7-(4-ethyl-1,4-diazepan-1-yl)-3-(6-methylimidazo[1,2-a]pyrazin-2-yl)-2H-pyrano[2,3-b]pyridin-2-one] | ≤ 0.1 µM | **** (a fold increase between >1.5 and ≦1.65 is indicated by four stars (****)) | *** (an EC1.5× between >0.3 μM and ≦1 μM is indicated by three stars (***))
252 to 256 °C | CCN1CCN(c2ccc3cc(-c4cn5cc(C)ncc5n4)c(=O)oc3n2)C[C@@H]1C [Cpd 143, 7-[(3S)-4-ethyl-3-methylpiperazin-1-yl]-3-(6methylimidazo-[1,2-a]pyrazin-2-yl)-2H-pyrano[2,3-b]pyridin-2-one] | ≤ 0.1 µM | **** (a fold increase between >1.5 and ≦1.65 is indicated by four stars (****)) | *** (an EC1.5× between >0.3 μM and ≦1 μM is indicated by three stars (***))
184 to 190 °C | CCN1CCN(c2ccc3cc(-c4cn5cc(C)nc(C)c5n4)c(=O)oc3n2)C[C@@H]1C [Cpd 144, 3-(6,8-dimethylimidazo[1,2-a]pyrazin-2-yl)-7-[(3S)-4-ethyl-3-methylpiperazin-1-yl]-2H-pyrano[2,3-b]pyridin-2-one] | ≤ 0.1 µM | **** (a fold increase between >1.5 and ≦1.65 is indicated by four stars (****)) | **** (an EC1.5×≦0.3 μM is indicated by four stars (****))
196 to 199 °C | CCN1CCN(c2ccc3cc(-c4cn5cccc(Cl)c5n4)c(=O)oc3n2)C[C@@H]1C [Cpd 145, 3-(8-chloroimidazo[1,2-a]pyridin-2-yl)-7-[(3S)-4-ethyl-3-methylpiperazin-1-yl]-2H-pyrano[2,3-b]pyridin-2-one] | ≤ 0.1 µM | **** (a fold increase between >1.5 and ≦1.65 is indicated by four stars (****)) | **** (an EC1.5×≦0.3 μM is indicated by four stars (****))
